Test results taken from patent US20260193242A1, “USEFUL COMPOUNDS FOR MODULATING INFLAMMATION” (FLAGSHIP PIONEERING INNOVATIONS VI, LLC, priority 2022, published 2026).

Test system: LPS-stimulated MoDC
Test: TLR4 stimulated pro-inflammatory cytokine release in primary human monocyte-derived dendritic cells
Type: cell-based
Conditions: healthy human donors D14 and D15, dose response
Text: Monocyte derived DC (MoDC) were differentiated from healthy human donor derived CD14+ monocytes. Commercially available freshly prepared Leukopaks were obtained from healthy blood donor and kept refrigerated on ice before spin centrifuged and the pelleted cells are rinsed and resuspended with MACS buffer (Miltenyi Biotec). Next, CD14+ monocytes were purified using MultiMACS™ Cell24 Separator-Plus instrumentation and reagents according to the manufacturer (Miltenyi Biotec) instructions. The resulting purified CD14+ cell fraction was washed, enumerated, and subsequently cryopreserved for later use. At the experiment first day cryopreserved CD14+ cells were thawed, rinsed with culture media, and then resuspended in culture media principally composed of RPMI (Invitrogen) supplemented with 10% v/v heat inactivated FBS. For generation of MoDC, these CD14+ cells were enumerated and seeded into 75 cm^2 tissue culture flasks in 30 mL of culture media supplemented with GM-CSF (40-100 ng/ml) and IL-4 (25 ng/ml). Every other day, half of the culture media was replaced with fresh media (containing the same cytokine supplementation) and after 6-7 days of culture, fully differentiated and mature MoDC were obtained as confirmed by conventional Immuno-phenotype markers (levels of expression or absence of surface CD80, CD83, CD86, CD209, HLA-DR, CD14 & CD64) that were verified by flow-cytometry. Fully differentiated (mature) MoDCs, were seeded into 96 flat-well plates and incubated with various concentrations of the compounds described herein, or with control solution (DMSO), or with the pharmacologic inhibitors Cyclosporin-A (CsA) or BAY 61-3606 (which is a known inhibitor of Syk kinase) for 6 hours. Next, the cells were stimulated with Toll-like receptor agonists R848 (TLR7/8) or LPS (TLR4), and further incubated for 18-20 hours. After incubation concluded, culture supernatants were collected, and the levels of inflammatory cytokines and chemokines were measured in a triplicate setting for each condition by Luminex® multiplex assay.

CN1[C@@H](C(=O)O)CC[C@H]1[C@@H]1CSC(c2ccccc2O)=N1 [Compound I-4, (2R,5S)-5-((R)-2-(2-hydroxyphenyl)-4,5-dihydrothiazol-4-yl)-1-methylpyrrolidine-2-carboxylic acid]
statistically significant decrease: IL-6 level | IL-12p70 level | IL-23 level | TNFα level
